# From patent US9115169B2, “Method of treating tumors” (Lytix Biopharma AS, priority 2000, dated 2015)
# Read-outs that look alike come from different tables or passages of the source. Where a SMILES comes first, the peptide text is derived from it. Where no end group is shown, it is not given here. [ ]: non-standard residue; d: D form. The star is where a group is joined. Trp(2-Pmc) = Cc1c(C)c(S(=O)(=O)c2[nH]c3ccccc3c2C[C@H](N)C(=O)O)c(C)c2c1OC(C)(C)CC2; Bip = N[C@@H](Cc1ccc(-c2ccccc2)cc1)C(=O)O; OBn = c1ccc(CO*)cc1
# Experiments:
# [1] = system: Escherichia coli ATCC 25922
# [2] = system: Staphylococcus aureus ATCC 25923
Compound,MIC E. coli ([1]; ATCC 25922) [µg/mL],"MIC E. coli ([1]; Table 8, second column)",MIC S. aureus ([2]; ATCC 25923) [µg/mL],"MIC S. aureus ([2]; Table 8, second column)","MIC E. coli ([1]; Table 8, first column) [µg/mL]","MIC S. aureus ([2]; Table 8, first column) [µg/mL]",Minimum inhibitory concentration E. coli ([1]; ATCC 25922) [mg/L],Minimum inhibitory concentration S. aureus ([2]; ATCC 25923) [mg/L]
C[C@H](NC(=O)[C@H](C)NC(=O)[C@H](CCCNC(=N)N)NC(=O)[C@@H](N)Cc1c[nH]c2ccccc12)C(=O)N[C@@H](Cc1c[nH]c2ccccc12)C(=O)N[C@@H](CCCNC(=N)N)C(N)=O [WRAAWR-NH2] (H-WRAAWR-NH2; N-terminus assumed),>200,237.0 μM/ml,>200,237.0 μM/ml,,,,
"WWAARR-NH2 Pmc+: hexapeptide amide having the Pmc group (also: Pmc group, position not given here)",,45.0 μM/ml,,4.5 μM/ml,50,5,,
"WRAAWR-NH2 Pmc+: hexapeptide amide having the Pmc group (also: Pmc group, position not given here)",,45.0 μM/ml,,2.3 μM/ml,50,2.5,,
C[C@H](NC(=O)[C@H](C)NC(=O)[C@H](Cc1c[nH]c2ccccc12)NC(=O)[C@@H](N)Cc1c[nH]c2ccccc12)C(=O)N[C@@H](CCCNC(=N)N)C(=O)N[C@@H](CCCNC(=N)N)C(N)=O [WWAARR-NH2] (H-WWAARR-NH2; N-terminus assumed),>200,237.0 μM/ml,>200,237.0 μM/ml,,,,
N=C(N)NCCC[C@H](NC(=O)[C@H](CCCNC(=N)N)NC(=O)[C@H](Cc1ccc(-c2ccccc2)cc1)NC(=O)[C@@H](N)Cc1c[nH]c2ccccc12)C(N)=O [WBRR-NH2] (H-W[Bip]RR-NH2; N-terminus assumed),>100,135.3 μM/ml,20,27.1 μM/ml,,,,
C[C@H](NC(=O)[C@H](C)NC(=O)[C@H](CCCNC(=N)N)NC(=O)[C@H](Cc1ccc(-c2ccccc2)cc1)NC(=O)[C@H](CCCNC(=N)N)NC(=O)[C@@H](N)Cc1c[nH]c2ccccc12)C(N)=O [WRBRAA-NH2] (H-WR[Bip]RAA-NH2; N-terminus assumed),150,170.2 μM/ml,35,39.7 μM/ml,,,,
Cc1c(C)c(S(=O)(=O)c2[nH]c3ccccc3c2C[C@H](NC(=O)[C@H](C)N)C(=O)N[C@@H](CCCNC(=N)N)C(=O)N[C@@H](Cc2ccc(-c3ccccc3)cc2)C(=O)N[C@@H](CCCNC(=N)N)C(=O)N[C@@H](C)C(N)=O)c(C)c2c1OC(C)(C)CC2 [AWRBRA-NH2 Pmc+] (H-A[Trp(2-Pmc)]R[Bip]RA-NH2; N-terminus assumed),,8.7 μM/ml,,2.2 μM/ml,,,,
C[C@H](NC(=O)[C@H](C)NC(=O)[C@H](Cc1ccc(-c2ccccc2)cc1)NC(=O)[C@@H](N)Cc1c[nH]c2ccccc12)C(=O)N[C@@H](CCCNC(=N)N)C(=O)N[C@@H](CCCNC(=N)N)C(N)=O [WBAARR-NH2] (H-W[Bip]AARR-NH2; N-terminus assumed),>300,340.5 μM/ml,35,39.7 μM/ml,,,,
"AAWWRR-NH2 Pmc+: hexapeptide amide having the Pmc group (also: Pmc group, position not given here)",,18.0 μM/ml,,2.3 μM/ml,20,2.5,,
C[C@H](NC(=O)[C@H](C)NC(=O)[C@H](CCCNC(=N)N)NC(=O)[C@@H](N)Cc1c[nH]c2ccccc12)C(=O)N[C@@H](Cc1ccc(-c2ccccc2)cc1)C(=O)N[C@@H](CCCNC(=N)N)C(N)=O [WRAABR-NH2] (H-WRAA[Bip]R-NH2; N-terminus assumed),150,170.2 μM/ml,35,39.7 μM/ml,,,,
Cc1c(C)c(S(=O)(=O)c2[nH]c3ccccc3c2C[C@H](NC(=O)[C@H](C)NC(=O)[C@H](C)N)C(=O)N[C@@H](CCCNC(=N)N)C(=O)N[C@@H](Cc2ccc(-c3ccccc3)cc2)C(=O)N[C@@H](CCCNC(=N)N)C(N)=O)c(C)c2c1OC(C)(C)CC2 [AAWRBR-NH2 Pmc+] (H-AA[Trp(2-Pmc)]R[Bip]R-NH2; N-terminus assumed),,13.1 μM/ml,,2.2 μM/ml,,,,
C[C@H](N)C(=O)N[C@@H](C)C(=O)N[C@@H](Cc1ccc(-c2ccccc2)cc1)C(=O)N[C@@H](Cc1ccc(-c2ccccc2)cc1)C(=O)N[C@@H](CCCNC(=N)N)C(=O)N[C@@H](CCCNC(=N)N)C(N)=O [AABBRR-NH2] (H-AA[Bip][Bip]RR-NH2; N-terminus assumed),20 to 35,21.8-38.1 μM/ml,5,5.4 μM/ml,,,,
C[C@H](N)C(=O)N[C@@H](C)C(=O)N[C@@H](Cc1c[nH]c2ccccc12)C(=O)N[C@@H](Cc1c[nH]c2ccccc12)C(=O)N[C@@H](CCCNC(=N)N)C(=O)N[C@@H](CCCNC(=N)N)C(N)=O [AAWWRR-NH2] (H-AAWWRR-NH2; N-terminus assumed),>200,237.0 μM/ml,>200,237.0 μM/ml,,,,
NCCCC[C@@H](N)C(=O)N[C@@H](Cc1c[nH]c2ccccc12)C(=O)OCc1ccccc1 [kW-OBzl] (H-[dK]-Trp-OBn),>300,,100,,,,>300,100
C[C@H](NC(=O)[C@H](C)NC(=O)[C@H](CCCNC(=N)N)NC(=O)[C@H](CCCNC(=N)N)NC(=O)[C@H](Cc1ccc(-c2ccccc2)cc1)NC(=O)[C@@H](N)Cc1ccc(-c2ccccc2)cc1)C(N)=O [BBRRAA-NH2] (H-[Bip][Bip]RRAA-NH2; N-terminus assumed),75,81.7 μM/ml,5,5.4 μM/ml,,,,
N=C(N)NCCC[C@H](NC(=O)[C@@H](N)Cc1c[nH]c2ccccc12)C(=O)N[C@@H](Cc1c[nH]c2ccccc12)C(=O)OCc1ccccc1 [WRW-OBzl] (H-Trp-Arg-Trp-OBn),,,5,,,,,
Cc1c(C)c(S(=O)(=O)c2[nH]c3ccccc3c2C[C@H](N)C(=O)N[C@@H](Cc2ccc(-c3ccccc3)cc2)C(=O)N[C@@H](CCCNC(=N)N)C(=O)N[C@@H](CCCNC(=N)N)C(N)=O)c(C)c2c1OC(C)(C)CC2 [WBRR-NH2 Pmc+] (H-[Trp(2-Pmc)][Bip]RR-NH2; N-terminus assumed),>100,99.5 μM/ml,5 to 10,5.0-9.9 μM/ml,,,,
C[C@H](N)C(=O)N[C@@H](C)C(=O)N[C@@H](Cc1c[nH]c2ccccc12)C(=O)N[C@@H](Cc1ccc(-c2ccccc2)cc1)C(=O)N[C@@H](CCCNC(=N)N)C(=O)N[C@@H](CCCNC(=N)N)C(N)=O [AAWBRR-NH2] (H-AAW[Bip]RR-NH2; N-terminus assumed),150,170.2 μM/ml,20 to 35,22.7-39.7 μM/ml,,,,
C[C@H](N)C(=O)N[C@@H](Cc1c[nH]c2ccccc12)C(=O)N[C@@H](CCCNC(=N)N)C(=O)N[C@@H](Cc1ccc(-c2ccccc2)cc1)C(=O)N[C@@H](CCCNC(=N)N)C(=O)N[C@@H](C)C(N)=O [AWRBRA-NH2] (H-AWR[Bip]RA-NH2; N-terminus assumed),35,39.7 μM/ml,35,39.7 μM/ml,,,,
C[C@H](NC(=O)[C@H](C)NC(=O)[C@H](CCCNC(=N)N)NC(=O)[C@H](CCCNC(=N)N)NC(=O)[C@H](Cc1ccc(-c2ccccc2)cc1)NC(=O)[C@@H](N)Cc1c[nH]c2ccccc12)C(N)=O [WBRRAA-NH2] (H-W[Bip]RRAA-NH2; N-terminus assumed),>300,340.5 μM/ml,75,85.1 μM/ml,,,,
C[C@H](NC(=O)[C@H](C)NC(=O)[C@H](Cc1ccc(-c2ccccc2)cc1)NC(=O)[C@@H](N)Cc1ccc(-c2ccccc2)cc1)C(=O)N[C@@H](CCCNC(=N)N)C(=O)N[C@@H](CCCNC(=N)N)C(N)=O [BBAARR-NH2] (H-[Bip][Bip]AARR-NH2; N-terminus assumed),>150,163.4 μM/ml,5,5.4 μM/ml,,,,
C[C@H](NC(=O)[C@H](C)NC(=O)[C@H](CCCNC(=N)N)NC(=O)[C@@H](N)CCCNC(=N)N)C(=O)N[C@@H](Cc1c[nH]c2ccccc12)C(=O)N[C@@H](Cc1ccc(-c2ccccc2)cc1)C(N)=O [RRAAWB-NH2] (H-RRAAW[Bip]-NH2; N-terminus assumed),150 to 300,,10,11.3 μM/ml,,,,
"AWRWRA-NH2 Pmc+: hexapeptide amide having the Pmc group (also: Pmc group, position not given here)",,18.0 μM/ml,,2.3 μM/ml,20,2.5,,
Cc1c(C)c(S(=O)(=O)c2[nH]c3ccccc3c2C[C@H](N)C(=O)N[C@@H](CCCNC(=N)N)C(=O)N[C@@H](Cc2ccc(-c3ccccc3)cc2)C(=O)N[C@@H](CCCNC(=N)N)C(=O)N[C@@H](C)C(=O)N[C@@H](C)C(N)=O)c(C)c2c1OC(C)(C)CC2 [WRBRAA-NH2 Pmc+] (H-[Trp(2-Pmc)]R[Bip]RAA-NH2; N-terminus assumed),,13.1 μM/ml,,4.4 μM/ml,,,,
C[C@H](N)C(=O)N[C@@H](C)C(=O)N[C@@H](Cc1c[nH]c2ccccc12)C(=O)N[C@@H](CCCNC(=N)N)C(=O)N[C@@H](Cc1ccc(-c2ccccc2)cc1)C(=O)N[C@@H](CCCNC(=N)N)C(N)=O [AAWRBR-NH2] (H-AAWR[Bip]R-NH2; N-terminus assumed),150 to 300,,35,39.7 μM/ml,,,,
NCCCC[C@H](N)CN[C@@H](Cc1c[nH]c2ccccc12)C(=O)OCc1ccccc1 [Kψ(CH2NH)WOBzl],,,,,,,>300,300
